Reference: ChEMBL document CHEMBL5346920, “Development of the "hidden" multi-target-directed ligands by AChE/BuChE for the treatment of Alzheimer's disease” (Eur J Med Chem, 2023)
pIC50: −log10 of the molar value. Activity calls are given as the source filed them. The rule behind the calls is not given here.

Legend:
Danio rerio [1] = species on record: Danio rerio; assay: Antialzheimer activity against AlCl3-induced Alzheimer's disease zebra fish model assessed as total distance moved at 8 uM treated for 24 hrs and measured after 24 hrs under dark environment (reference value: 312 cm); type: functional; conditions: time 48 hrs
Danio rerio [2] = species on record: Danio rerio; assay: Antialzheimer activity against AlCl3-induced Alzheimer's disease zebra fish model assessed as total distance moved at 8 uM treated for 24 hrs and measured after 24 hrs under light environment (reference value: 230 cm); type: functional; conditions: time 48 hrs
Danio rerio [3] = species on record: Danio rerio; assay: Neuroprotective activity against AlCl3-induced Alzheimer's disease zebra fish model assessed as increase in ACh content at 8 uM treated for 24 hrs and measured after 24 hrs; type: functional, organism-based; conditions: time 48.0 hrs
Danio rerio [4] = species on record: Danio rerio; assay: Antialzheimer activity against AlCl3-induced Alzheimer's disease zebra fish model assessed as total distance moved at 8 uM treated for 24 hrs and measured after 24 hrs under alternating light dark stimuli conditions (reference value: 543 cm); type: functional; conditions: time 48 hrs
[5] = molecular target: Cholinesterase (Equus caballus) (UniProt P81908); assay: Reversible inhibition of equine serum BuChE assessed as enzyme activity using butyrylthiocholine chloride as substrate measured after dilution to 0.1XIC50 for 240 mins by Ellman's method; type: cell-free; parameters: scale not given: the % may be the effect or the level left
Danio rerio [6] = species on record: Danio rerio; assay: Neuroprotective activity against AlCl3-induced Alzheimer's disease zebra fish model assessed as inhibition of AlCl3-induced AChE activity at 8 uM treated for 24 hrs and measured after 24 hrs; type: functional, organism-based; conditions: time 48.0 hrs
PC-12 [7] = assay: Cytotoxicity against rat PC-12 cells assessed as cell viability at 40 uM by CCK-8 assay; type: toxicity, cell-based; conditions: pc-12, 40 µM
PC-12 [8] = assay: Neuroprotective activity against Amyloid beta(25 to 35)-induced cell injury in rat PC12 cells assessed as cell viability at 20 uM pretreated for 2 hrs followed by incubation with Abeta(25 to 35) for 24 hrs by CCK-8 assay (reference value: 41 to 58.6%); type: functional; conditions: time 26 hrs, read-out: Activity
[9] = Stability of the compound in artificial gastric juice assessed as parent compound remaining at 1 mg/ml measured after 8 hrs by UPLC-MS/MS analysis; type: ADME; conditions: read-out: Stability
[10] = Metal chelating activity assessed as compound-Al3+ complex formation by measuring maximum absorption wavelength shift from 316 to 434 nm at 37.5 uM incubated for 30 mins in presence of AlCl3 by UV-Vis spectrometry
[11] = Stability of the compound in rat liver microsomes assessed as parent compound remaining at 10 ug/ml measured after 60 mins by UPLC-MS/MS analysis; type: ADME, Microsome; conditions: at 10 µg/mL, read-out: Stability
[12] = molecular target: T1, Amine oxidase [flavin-containing] A (Homo sapiens, UniProt P21397); assay: Inhibition of human recombinant MAO-A expressed in baculovirus-infected BTI cells using kynuramine as substrate incubated for 30 mins by fluorescence based analysis
T1 sequence (P21397 whole entry): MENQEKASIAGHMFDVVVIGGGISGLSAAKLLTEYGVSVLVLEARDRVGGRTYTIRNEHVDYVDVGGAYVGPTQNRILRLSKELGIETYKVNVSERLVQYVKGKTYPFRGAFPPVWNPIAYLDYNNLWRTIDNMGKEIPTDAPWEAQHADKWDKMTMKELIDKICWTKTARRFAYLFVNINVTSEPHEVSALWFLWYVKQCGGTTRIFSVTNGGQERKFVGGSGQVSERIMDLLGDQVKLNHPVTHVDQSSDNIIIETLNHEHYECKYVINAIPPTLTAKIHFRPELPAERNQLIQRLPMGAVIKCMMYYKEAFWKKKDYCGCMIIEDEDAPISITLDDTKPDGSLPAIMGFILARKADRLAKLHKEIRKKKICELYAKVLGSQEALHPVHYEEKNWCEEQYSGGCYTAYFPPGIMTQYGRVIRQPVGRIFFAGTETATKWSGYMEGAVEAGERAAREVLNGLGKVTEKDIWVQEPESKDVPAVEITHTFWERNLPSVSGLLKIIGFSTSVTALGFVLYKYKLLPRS

Acetylcholinesterase = Acetylcholinesterase (Electrophorus electricus, UniProt O42275); assay: Inhibition of electric eel AChE using acetylthiocholine chloride as substrate by Ellman's method
BV-2 [13] = assay: Anti-inflammatory activity against LPS-stimulated mouse BV-2 cells assessed as inhibition of LPS-induced IL-1 beta production incubated for 24 hrs in presence of LPS; type: functional, cell-based; conditions: dose 1-9 µM
[14] = molecular target: T2, Amine oxidase [flavin-containing] B (Homo sapiens, UniProt P27338); assay: Inhibition of human recombinant MAO-B expressed in baculovirus-infected BTI cells using kynuramine as substrate incubated for 30 mins by fluorescence based analysis
T2 sequence (P27338 whole entry): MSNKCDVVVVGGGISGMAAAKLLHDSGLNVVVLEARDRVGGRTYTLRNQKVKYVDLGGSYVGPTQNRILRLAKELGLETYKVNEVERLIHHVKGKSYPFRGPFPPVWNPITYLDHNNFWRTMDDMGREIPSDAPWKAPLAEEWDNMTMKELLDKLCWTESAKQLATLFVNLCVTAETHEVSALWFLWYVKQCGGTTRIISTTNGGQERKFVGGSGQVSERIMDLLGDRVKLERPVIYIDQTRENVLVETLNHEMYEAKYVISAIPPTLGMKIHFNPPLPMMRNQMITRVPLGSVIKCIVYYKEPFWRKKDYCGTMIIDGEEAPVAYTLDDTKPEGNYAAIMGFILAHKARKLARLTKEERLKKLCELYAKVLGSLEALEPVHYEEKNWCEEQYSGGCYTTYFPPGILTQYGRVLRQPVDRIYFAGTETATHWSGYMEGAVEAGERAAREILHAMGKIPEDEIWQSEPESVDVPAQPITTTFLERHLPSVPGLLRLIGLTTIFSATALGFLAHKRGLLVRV

[15] = Stability of the compound in rat plasma assessed as parent compound remaining at 10 ug/ml measured after 3 hrs by UPLC-MS/MS analysis; type: ADME, cell-free; conditions: at 10 µg/mL, read-out: Stability
[16] = Metal chelating activity assessed as compound-Zn2+ complex formation at 37.5 uM incubated for 30 mins in presence of ZnCl2 by UV-Vis spectrometry
[17] = Metal chelating activity assessed as compound-Fe2+ complex formation at 37.5 uM incubated for 30 mins in presence of FeSO4 by UV-Vis spectrometry
[18] = Permeability of the compound at 100 ug/ml incubated for 18 hrs by PAMPA assay; type: ADME; conditions: dose 100 µg/ml, read-out: permeability
BV-2 [19] = assay: Anti-inflammatory activity against LPS-stimulated mouse BV-2 cells assessed as inhibition of LPS-induced IL-6 production incubated for 24 hrs in presence of LPS; type: functional, cell-based; conditions: dose 1-9 µM
[20] = (§1) Cytotoxicity against mouse BV-2 cells assessed as cell viability at 30 uM by CCK8 assay; type: toxicity, cell-based; conditions: BV-2 cells, read-out: Activity
[21] = Metal chelating activity assessed as compound-Cu2+ complex formation at stoichiometric ratio of 1:1 at 37.5 uM in presence of CuCl2 by UV-Vis spectrometry
[22] = Stability of the compound in blank intestinal juice assessed as parent compound remaining at 1 mg/ml measured after 8 hrs by UPLC-MS/MS analysis; type: ADME; conditions: read-out: Stability
PC-12 [23] = assay: Neuroprotective activity against Amyloid beta(25 to 35)-induced cell injury in rat PC12 cells assessed as cell viability at 5 uM pretreated for 2 hrs followed by incubation with Abeta(25 to 35) for 24 hrs by CCK-8 assay (reference value: 41 to 58.6%); type: functional; conditions: time 26 hrs, read-out: Activity
[24] = Metal chelating activity assessed as compound-Cu2+ complex formation by measuring small fiber aggregates incubated for 24 hrs by transmission electron microscopy
[25] = Stability of the compound in artificial intestinal juice assessed as parent compound remaining at 1 mg/ml measured after 8 hrs by UPLC-MS/MS analysis; type: ADME; conditions: read-out: Stability
BV-2 [26] = assay: Anti-inflammatory activity against LPS-stimulated mouse BV-2 cells assessed as inhibition of LPS-induced NO production incubated for 24 hrs in presence of LPS; type: functional, cell-based; conditions: dose 1-9 µM
Homo sapiens = species on record: Homo sapiens; assay: Selectivity index, ratio of IC50 for inhibition of human recombinant MAO-A expressed in baculovirus-infected BTI cells to IC50 for inhibition of human recombinant MAO-B expressed in baculovirus-infected BTI cells
BV-2 [27] = assay: Cytotoxicity against mouse BV-2 cells assessed as reduction in cell viability at 10 uM by CCK8 assay; type: toxicity, cell-based; conditions: bv-2, 10 µM
[28] = Metal chelating activity assessed as compound-Cu2+ complex formation by measuring inhibition of Cu2+-induced amyloid beta (1 to 42) aggregation at 25 uM by thioflavin T-based fluorescence analysis
PC-12 [29] = assay: Neuroprotective activity against Amyloid beta(25 to 35)-induced cell injury in rat PC12 cells assessed as cell viability at 10 uM pretreated for 2 hrs followed by incubation with Abeta(25 to 35) for 24 hrs by CCK-8 assay (reference value: 41 to 58.6%); type: functional; conditions: time 26 hrs, read-out: Activity
[30] = Metal chelating activity assessed as compound-Cu2+ complex formation by measuring maximum absorption wavelength shift from 316 to 446 nm at 37.5 uM incubated for 30 mins in presence of CuCl2 by UV-Vis spectrometry
[31] = molecular target: Cholinesterase (Equus caballus) (UniProt P81908); assay: Inhibition of equine serum BuChE using butyrylthiocholine chloride as substrate at 25 uM by Ellman's method; type: cell-free
[32] = molecular target: Amyloid-beta precursor protein (Homo sapiens) (UniProt P05067); assay: Inhibition of self-induced Amyloid beta (1 to 42) (unknown origin) aggregation at 25 uM incubated for 24 hrs by thioflavin T-based fluorescence analysis
[33] = Stability of the compound in blank gastric juice assessed as parent compound remaining at 1 mg/ml measured after 8 hrs by UPLC-MS/MS analysis; type: ADME; conditions: read-out: Stability
BV-2 [34] = assay: Anti-inflammatory activity against LPS-stimulated mouse BV-2 cells assessed as inhibition of LPS-induced IL-1 beta production by measuring IL-beta level at 1 uM incubated for 24 hrs in presence of LPS (reference value: 221.3 pg/ml); type: functional
BV-2 [35] = assay: Anti-inflammatory activity against LPS-stimulated mouse BV-2 cells assessed as inhibition of LPS-induced IL-1 beta production by measuring IL-beta level at 9 uM incubated for 24 hrs in presence of LPS (reference value: 221.3 pg/ml); type: functional
BV-2 [36] = assay: as §1; type: toxicity, cell-based; conditions: bv-2, 30 µM
BV-2 [37] = assay: Anti-inflammatory activity against LPS-stimulated mouse BV-2 cells assessed as inhibition of LPS-induced IL-6 production by measuring IL-6 level at 3 uM incubated for 24 hrs in presence of LPS (reference value: 1503.2 pg/ml); type: functional
BV-2 [38] = assay: Anti-inflammatory activity against LPS-stimulated mouse BV-2 cells assessed as inhibition of LPS-induced IL-6 production by measuring IL-6 level at 1 uM incubated for 24 hrs in presence of LPS (reference value: 1503.2 pg/ml); type: functional
BV-2 [39] = assay: Anti-inflammatory activity against LPS-stimulated mouse BV-2 cells assessed as inhibition of LPS-induced IL-1 beta production by measuring IL-beta level at 3 uM incubated for 24 hrs in presence of LPS (reference value: 221.3 pg/ml); type: functional
BV-2 [40] = assay: Anti-inflammatory activity against LPS-stimulated mouse BV-2 cells assessed as inhibition of LPS-induced IL-6 production by measuring IL-6 level at 9 uM incubated for 24 hrs in presence of LPS (reference value: 1503.2 pg/ml); type: functional

Sequence of Cholinesterase (Equus caballus) (P81908 whole entry): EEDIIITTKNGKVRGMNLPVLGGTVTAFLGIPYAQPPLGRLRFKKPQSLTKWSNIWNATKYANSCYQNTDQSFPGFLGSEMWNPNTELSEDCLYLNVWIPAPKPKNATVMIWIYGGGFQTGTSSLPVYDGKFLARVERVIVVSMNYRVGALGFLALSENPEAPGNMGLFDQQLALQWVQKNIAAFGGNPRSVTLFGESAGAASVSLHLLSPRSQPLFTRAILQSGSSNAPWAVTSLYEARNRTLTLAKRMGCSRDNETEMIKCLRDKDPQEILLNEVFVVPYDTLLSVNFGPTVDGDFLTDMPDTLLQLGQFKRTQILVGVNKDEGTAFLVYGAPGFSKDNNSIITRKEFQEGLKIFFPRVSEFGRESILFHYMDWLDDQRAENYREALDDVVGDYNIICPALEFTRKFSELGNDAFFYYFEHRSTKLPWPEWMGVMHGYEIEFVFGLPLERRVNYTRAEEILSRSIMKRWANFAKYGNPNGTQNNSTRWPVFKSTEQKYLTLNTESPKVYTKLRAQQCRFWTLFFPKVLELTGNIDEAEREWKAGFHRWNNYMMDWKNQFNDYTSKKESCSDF
Sequence of Amyloid-beta precursor protein (Homo sapiens) (P05067 whole entry): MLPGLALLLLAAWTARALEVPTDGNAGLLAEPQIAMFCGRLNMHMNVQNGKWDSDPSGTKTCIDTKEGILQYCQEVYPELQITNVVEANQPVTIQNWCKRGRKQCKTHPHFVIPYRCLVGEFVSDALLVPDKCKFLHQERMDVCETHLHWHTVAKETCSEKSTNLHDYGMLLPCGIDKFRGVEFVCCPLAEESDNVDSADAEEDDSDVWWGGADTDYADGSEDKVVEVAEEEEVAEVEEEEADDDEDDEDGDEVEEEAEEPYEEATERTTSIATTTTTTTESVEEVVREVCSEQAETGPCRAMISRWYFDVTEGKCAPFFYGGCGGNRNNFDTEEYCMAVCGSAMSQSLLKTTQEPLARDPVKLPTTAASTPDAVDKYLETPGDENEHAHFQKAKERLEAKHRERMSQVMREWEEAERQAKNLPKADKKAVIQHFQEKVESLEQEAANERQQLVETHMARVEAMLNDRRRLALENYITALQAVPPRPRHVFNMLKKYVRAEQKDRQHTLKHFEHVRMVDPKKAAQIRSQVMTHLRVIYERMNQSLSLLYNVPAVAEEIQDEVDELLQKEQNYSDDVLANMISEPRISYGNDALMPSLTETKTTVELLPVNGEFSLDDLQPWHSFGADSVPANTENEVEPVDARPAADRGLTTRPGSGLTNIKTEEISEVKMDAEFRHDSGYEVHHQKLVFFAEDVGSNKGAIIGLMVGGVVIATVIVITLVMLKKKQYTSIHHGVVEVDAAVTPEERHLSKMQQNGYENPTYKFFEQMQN
Sequence of Acetylcholinesterase (O42275 whole entry): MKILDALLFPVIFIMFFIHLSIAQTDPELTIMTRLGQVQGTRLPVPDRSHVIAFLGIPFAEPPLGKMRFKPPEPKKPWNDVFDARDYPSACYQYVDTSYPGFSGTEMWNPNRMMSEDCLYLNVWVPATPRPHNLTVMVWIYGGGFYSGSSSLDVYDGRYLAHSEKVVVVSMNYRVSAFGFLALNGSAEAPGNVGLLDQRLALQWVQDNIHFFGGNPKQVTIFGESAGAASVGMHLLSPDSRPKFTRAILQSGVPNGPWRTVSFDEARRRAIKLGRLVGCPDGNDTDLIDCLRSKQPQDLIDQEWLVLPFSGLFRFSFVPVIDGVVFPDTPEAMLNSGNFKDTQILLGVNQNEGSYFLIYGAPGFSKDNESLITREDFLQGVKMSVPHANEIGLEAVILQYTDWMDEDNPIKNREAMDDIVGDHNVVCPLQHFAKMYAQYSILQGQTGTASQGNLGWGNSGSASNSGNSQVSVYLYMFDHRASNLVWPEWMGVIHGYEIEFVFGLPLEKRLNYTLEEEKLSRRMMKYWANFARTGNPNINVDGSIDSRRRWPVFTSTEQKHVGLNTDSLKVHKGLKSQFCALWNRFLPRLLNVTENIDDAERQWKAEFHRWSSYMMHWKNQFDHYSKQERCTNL

SMILES: COc1cc2c(cc1OC)C(=O)C(CC1CCN(Cc3ccccc3)CC1)C2 (configuration not stated) [DONEPEZIL]
- Activity (Danio rerio [1]): 325 cm
- Activity (Danio rerio [2]): 334 cm
- Activity (Danio rerio [3]): Active
- Activity (Danio rerio [4]): 671 cm
- Activity [5]: 118%
- Activity (Danio rerio [6]): Active

SMILES: O=C(/C=C/c1ccc(F)cc1)c1ccccc1O
- Activity (PC-12 [7]): Non-Toxic
- viability at 20 µM (PC-12 [8]): 99.1%
- remaining at 8 h, 1 mg/ml [9]: 99%
- Activity [10]: Active
- remaining at 1 h, 10 ug/ml [11]: 97.2%
- pIC50 [12]: 4.42
- pIC50 (Acetylcholinesterase): 4.59
- Activity (BV-2 [13]): Dose-Dependent Effect
- pIC50 [14]: 6.17
- remaining at 3 h, 10 ug/ml [15]: 101%
- Activity [16]: inactive
- Activity [17]: inactive
- Papp at 18 h, 100 ug/ml [18]: 11.5 ×10⁻⁶ cm/s
- Activity (BV-2 [19]): Dose-Dependent Effect
- viability at 30 µM [20]: 80.1%
- Activity [21]: Active
- remaining at 8 h, 1 mg/ml [22]: 96%
- viability at 5 µM (PC-12 [23]): 80.6%
- Activity [24]: Active
- remaining at 8 h, 1 mg/ml [25]: 96.5%
- Activity (BV-2 [26]): Dose-Dependent Effect
- Ratio IC50 (Homo sapiens): 57.2
- Activity (BV-2 [27]): Non-Toxic
- inhibition [28]: 86.5%
- viability at 10 µM (PC-12 [29]): 89.9%
- Activity [30]: Active
- inhibition [31]: 10.6%
- inhibition [32]: 76.9%
- remaining at 8 h, 1 mg/ml [33]: 97%

SMILES: CC(C(=O)O)c1ccc(-c2ccccc2)c(F)c1 (configuration not stated) [FLURBIPROFEN]
- Activity (BV-2 [34]): 185.6 pg/mL
- Activity (BV-2 [35]): 92.9 pg/mL
- Activity (BV-2 [36]): Non-Toxic
- Activity (BV-2 [37]): 1096.7 pg/mL
- Activity (BV-2 [38]): 1280.5 pg/mL
- Activity (BV-2 [39]): 149.8 pg/mL
- Activity (BV-2 [40]): 808.6 pg/mL
